According to patent US12247031B2, “Cyclobutyl pyrazolopyrimidine PDE9 inhibitors” (Merck Sharp & Dohme LLC, priority 2018, dated 2025):
pKi: −log10 of the molar value.

biological target: Human PDE9 (PDE9A2) (Homo sapiens (Human), UniProt O76083); test: PDE9 IMAP fluorescence polarization assay; format: biochemical; settings: human PDE9A2, FAM-cGMP substrate 50 nM, IMAP FP, apparent inhibition constant
Protocol: The activity of the compounds in accordance with the present invention as PDE9 inhibitors may be readily determined without undue experimentation using a fluorescence polarization (FP) methodology that is well known in the art (Huang, W., et al., J. Biomol Screen. 2002, 7: 215).
In a typical experiment the PDE9 inhibitory activity of the compounds of the present invention was determined in accordance with the following experimental method.
Human PDE9 (PDE9A2, GenBank Accession No. NM_001001567), full length with N-terminal GST tag, was purchased from BPS Bioscience. The fluorescence polarization assay for cyclic nucleotide phosphodiesterases was performed using an IMAP® FP kit supplied by Molecular Devices, Sunnyvale, CA (product #R8139). IMAP® technology has been applied previously to phosphodiesterase assays (Huang, W., et al., J. Biomol Screen. 2002, 7: 215).
Fluorescence polarization (mP) was calculated from the parallel (S) and perpendicular (P) fluorescence of each sample well and the analogous values for the median control well, containing only substrate (So and Po), using the following equation: Polarization (mP)=1000*(S/So−P/Po)/(S/So+P/Po).
Dose-inhibition profiles for each compound were characterized by fitting the mP data to a four-parameter equation given below. The apparent inhibition constant (KI), the maximum inhibition at the low plateau relative to “100% Inhibition Control” (Imax; e.g. 1=>same as this control), the minimum inhibition at the high plateau relative to the “0% Inhibition Control” (Imin, e.g. 0=>same as the no drug control) and the Hill slope (nH) are determined by a non-linear least squares fitting of the mP values as a function of dose of the compound using an in-house software based on the procedures described by Mosser et al., JALA. 2003, 8: 54-63, using the following equation: […]

Row | Compound | pKi
1 | C[C@@H](c1ccc(C(F)(F)F)nc1)n1nc(C#N)c2c(=O)[nH]c(C3CCC3c3ccn(C)n3)nc21 (single isomer, unassigned) [Example 17] | 7.36
2 | C[C@@H](c1ccc(C(F)(F)F)nc1)n1nc(C#N)c2c(=O)[nH]c(C3CCC3c3ccn(C)n3)nc21 (single isomer, unassigned) [Example 18] | 7.44
3 | C[C@@H](c1ccc(C(F)(F)F)nc1)n1nc(C#N)c2c(=O)[nH]c(C3CCC3c3ccnn3C)nc21 (single isomer, unassigned) [Example 19] | 9.84
4 | C[C@@H](c1ccc(C(F)(F)F)nc1)n1nc(C#N)c2c(=O)[nH]c(C3CCC3c3cncnc3)nc21 (single isomer, unassigned) [Example 20] | 9.22
5 | C[C@@H](c1ccc(C(F)(F)F)nc1)n1nc(C#N)c2c(=O)[nH]c(C3CCC3c3cncnc3)nc21 (single isomer, unassigned) [Example 21] | 6.76
6 | CC(c1ccc(C(F)(F)F)nc1)n1nc(C#N)c2c(=O)[nH]c(C3CCC3n3cc(C#N)cn3)nc21 (single isomer, unassigned) [Example 24, 6-(2-(4-cyano-1H-pyrazol-1-yl)cyclobutyl)-4-oxo-1-(1-(6-(trifluoromethyl)pyridin-3-yl)ethyl)-4,5-dihydro-1H-pyrazolo[3,4-d]pyrimidine-3-carbonitrile] | 7.65
7 | CC(c1ccc(C(F)(F)F)nc1)n1nc(C#N)c2c(=O)[nH]c(C3CCC3n3cc(C#N)cn3)nc21 (single isomer, unassigned) [Example 25, 6-(2-(4-cyano-1H-pyrazol-1-yl)cyclobutyl)-4-oxo-1-(1-(6-(trifluoromethyl)pyridin-3-yl)ethyl)-4,5-dihydro-1H-pyrazolo[3,4-d]pyrimidine-3-carbonitrile] | 9.46
8 | CC(c1ccc(C(F)(F)F)nc1)n1nc(C#N)c2c(=O)[nH]c(C3CCC3n3ccc(C#N)n3)nc21 (single isomer, unassigned) [Example 26, 6-(2-(3-cyano-1H-pyrazol-1-yl)cyclobutyl)-4-oxo-1-(1-(6-(trifluoromethyl)pyridin-3-yl)ethyl)-4,5-dihydro-1H-pyrazolo[3,4-d]pyrimidine-3-carbonitrile] | 7.02
9 | CC(c1ccc(C(F)(F)F)nc1)n1nc(C#N)c2c(=O)[nH]c(C3CCC3n3ccc(C#N)n3)nc21 (single isomer, unassigned) [Example 27, 6-(2-(3-cyano-1H-pyrazol-1-yl)cyclobutyl)-4-oxo-1-(1-(6-(trifluoromethyl)pyridin-3-yl)ethyl)-4,5-dihydro-1H-pyrazolo[3,4-d]pyrimidine-3-carbonitrile] | 8.82
10 | CC(c1ccc(C(F)(F)F)nc1)n1nc(C#N)c2c(=O)[nH]c(C3CCC3n3ccc(C#N)n3)nc21 (single isomer, unassigned) [Example 28, 6-(2-(3-cyano-1H-pyrazol-1-yl)cyclobutyl)-4-oxo-1-(1-(6-(trifluoromethyl)pyridin-3-yl)ethyl)-4,5-dihydro-1H-pyrazolo[3,4-d]pyrimidine-3-carbonitrile] | 7.51
11 | CC(c1ccc(C(F)(F)F)nc1)n1nc(C#N)c2c(=O)[nH]c(C3CCC3n3ccc(C#N)n3)nc21 (single isomer, unassigned) [Example 29, 6-(2-(3-cyano-1H-pyrazol-1-yl)cyclobutyl)-4-oxo-1-(1-(6-(trifluoromethyl)pyridin-3-yl)ethyl)-4,5-dihydro-1H-pyrazolo[3,4-d]pyrimidine-3-carbonitrile] | 9.59
12 | C[C@@H](c1ccc(C(F)(F)F)nc1)n1nc(C#N)c2c(=O)[nH]c(C3CCC3n3cc(F)cn3)nc21 (single isomer, unassigned) [Example 34] | 8.23
13 | C[C@@H](c1ccc(C(F)(F)F)nc1)n1nc(C#N)c2c(=O)[nH]c(C3CCC3n3cc(F)cn3)nc21 (single isomer, unassigned) [Example 35] | 9.40
14 | C[C@@H](c1ccc(C(F)(F)F)nc1)n1nc(C#N)c2c(=O)[nH]c(C3CCC3n3cccn3)nc21 (single isomer, unassigned) [Example 36] | 6.83
15 | C[C@@H](c1ccc(C(F)(F)F)nc1)n1nc(C#N)c2c(=O)[nH]c(C3CCC3n3cccn3)nc21 (single isomer, unassigned) [Example 37] | 6.91
16 | C[C@@H](c1ccc(C(F)(F)F)nc1)n1nc(C#N)c2c(=O)[nH]c(C3CCC3n3cc(C4CC4)cn3)nc21 (single isomer, unassigned) [Example 38] | 7.96
17 | C[C@@H](c1ccc(C(F)(F)F)nc1)n1nc(C#N)c2c(=O)[nH]c(C3CCC3n3cc(C4CC4)cn3)nc21 (single isomer, unassigned) [Example 39] | 8.76
18 | CC(C1CCOCC1)n1nc(C#N)c2c(=O)[nH]c(C3CCC3n3cc(C#N)cn3)nc21 (single isomer, unassigned) [Example 48, 6-(2-(4-cyano-1H-pyrazol-1-yl)cyclobutyl)-4-oxo-1-(1-(tetrahydro-2H-pyran-4-yl)ethyl)-4,5-dihydro-1H-pyrazolo[3,4-d]pyrimidine-3-carbonitrile] | 6.44
19 | C[C@@H](c1ccc(C(F)(F)F)nc1)n1nc(C#N)c2c(=O)[nH]c(C3CCC3c3cc4n(n3)CCC4)nc21 (stereo partly drawn) [Example 12, 6-(2-(5,6-dihydro-4H-pyrrolo[1,2-b]pyrazol-2-yl)cyclobutyl)-4-oxo-1-((S)-1-(6-(trifluoromethyl)pyridin-3-yl)ethyl)-4,5-dihydro-1H-pyrazolo[3,4-d]pyrimidine-3-carbonitrile] | 6.22
20 | C[C@@H](c1ccc(C(F)(F)F)nc1)n1nc(C#N)c2c(=O)[nH]c(C3CCC3c3cncnc3)nc21 (stereo partly drawn) [Example 22, 4-oxo-6-(2-(pyrimidin-5-yl)cyclobutyl)-1-((S)-1-(6-(trifluoromethyl)pyridin-3-yl)ethyl)-4,5-dihydro-1H-pyrazolo[3,4-d]pyrimidine-3-carbonitrile] | 6.22
21 | C[C@@H](c1ccc(C(F)(F)F)nc1)n1nc(C#N)c2c(=O)[nH]c(C3CCC3c3cncnc3)nc21 (stereo partly drawn) [Example 23, 4-oxo-6-(2-(pyrimidin-5-yl)cyclobutyl)-1-((S)-1-(6-(trifluoromethyl)pyridin-3-yl)ethyl)-4,5-dihydro-1H-pyrazolo[3,4-d]pyrimidine-3-carbonitrile] | 6.22
22 | CC(c1ccc(C(F)(F)F)nc1)n1nc(C#N)c2c(=O)[nH]c(C3CCC3N3CCOCC3=O)nc21 (stereo not drawn) [Example 30, 4-oxo-6-(2-(3-oxomorpholino)cyclobutyl)-1-(1-(6-(trifluoromethyl)pyridin-3-yl)ethyl)-4,5-dihydro-1H-pyrazolo[3,4-d]pyrimidine-3-carbonitrile] | 6.22
23 | C[C@@H](c1ccc(C(F)(F)F)nc1)n1nc(C#N)c2c(=O)[nH]c(C3CCC3n3cc(C(F)(F)F)cn3)nc21 (stereo partly drawn) [Example 31, 4-oxo-6-(2-(4-(trifluoromethyl)-1H-pyrazol-1-yl)cyclobutyl)-1-((S)-1-(6-(trifluoromethyl)pyridin-3-yl)ethyl)-4,5-dihydro-1H-pyrazolo[3,4-d]pyrimidine-3-carbonitrile] | 9.40
24 | C[C@@H](c1ccc(C(F)(F)F)nc1)n1nc(C#N)c2c(=O)[nH]c(C3CCC3n3ccc(C(F)(F)F)n3)nc21 (stereo partly drawn) [Example 32, 4-oxo-6-(2-(3-(trifluoromethyl)-1H-pyrazol-1-yl)cyclobutyl)-1-((S)-1-(6-(trifluoromethyl)pyridin-3-yl)ethyl)-4,5-dihydro-1H-pyrazolo[3,4-d]pyrimidine-3-carbonitrile] | 6.22
